Data as given in PMC11574021, “CEP192 localises mitotic Aurora-A activity by priming its interaction with TPX2” (The EMBO Journal, 2024).

Assays:
Format in all cases: cell-based, Homo sapiens
[1] = test system: Aurora-A in U251 and RPE1 cells; experiment: Western blot, total Aurora-A protein level; conditions: mitotic U251 and RPE1 lysates, siRNA 48 h
Protocol: Cells were lysed on ice for 30 min in lysis buffer (50 mM tris pH 8.0, 300 mM NaCl, 0.2%(v/v) NP-40, 10%(v/v) glycerol, protease inhibitor cocktail C, phosphatase inhibitor cocktail 3 (Sigma, 1:200 dilution), 100 nM okadaic acid (Enzo, ALX-350-003-C100)). Lysates were then centrifuged at 14,000 × g, 15 min, 4 °C, the supernatants were transferred to a fresh tube, and the pellet was discarded. Protein concentrations were measured by Bradford assay using Protein Assay Dye Reagent Concentrate (Bio-Rad Laboratories, 5000006). NuPage LDS sample buffer, supplemented with NuPAGE sample reducing agent (Invitrogen) were added prior to boiling for 10 min at 90 °C. Equal amounts of protein, between 8–20 µg/lane, were loaded into pre-cast 4–12% Bis-Tris gels (Invitrogen, NP0322BOX) and proteins separated in 1x MOPS buffer (Invitrogen) and transferred to nitrocellulose membrane (0.45 µM). Nitrocellulose was then blocked in 5% milk (wt/v) in TBS, 0.1% Tween (v/v) (TBST) for 1 h. Primary and secondary antibodies were diluted in 5% milk, TBST and incubated overnight at 4 °C or for 1 h at room temperature, respectively. Species-specific secondary antibodies conjugated to horseradish peroxidase (HRP) were used (anti-Mouse, Cytiva NA931V; anti-Rabbit, Cytiva NA934; anti-Sheep, Jackson 713-035-003). Membranes were washed for 1 h in TBST, changing the buffer five times, after each antibody incubation. […]

[2] = test system: PLK1-pT210 in RPE1 p53-/- cells; experiment: Western blot densitometry, PLK1-pT210, RPE1 p53-/-; conditions: mitotic RPE1 p53-/- lysates, inhibitor 30 min
Protocol: (§1) For measuring monopolar spindle diameter and counting centriolar foci by immunofluorescence, cells were treated with 10 µM STLC for 1 h and 4 h prior to fixation, respectively.
(§2) Drugs were resuspended in DMSO to the stock concentrations indicated in square brackets.
(§3) Cells were lysed on ice for 30 min in lysis buffer (50 mM tris pH 8.0, 300 mM NaCl, 0.2%(v/v) NP-40, 10%(v/v) glycerol, protease inhibitor cocktail C, phosphatase inhibitor cocktail 3 (Sigma, 1:200 dilution), 100 nM okadaic acid (Enzo, ALX-350-003-C100)). Lysates were then centrifuged at 14,000 × g, 15 min, 4 °C, the supernatants were transferred to a fresh tube, and the pellet was discarded. Protein concentrations were measured by Bradford assay using Protein Assay Dye Reagent Concentrate (Bio-Rad Laboratories, 5000006). NuPage LDS sample buffer, supplemented with NuPAGE sample reducing agent (Invitrogen) were added prior to boiling for 10 min at 90 °C. […] Nitrocellulose was then blocked in 5% milk (wt/v) in TBS, 0.1% Tween (v/v) (TBST) for 1 h. Primary and secondary antibodies were diluted in 5% milk, TBST and incubated overnight at 4 °C or for 1 h at room temperature, respectively. […]
(§4) Densitometric quantification of western blots was also performed in ImageJ. Intensity was measured in a rectangular region of interest (ROI) around each band. […] An adjacent region was also measured to account for background intensity.

[3] = test system: TCTP-pS46 in RPE1 p53-/- cells; experiment: Western blot densitometry, TCTP-pS46, RPE1 p53-/-; conditions: mitotic RPE1 p53-/- lysates, inhibitor 30 min
Protocol: as §1, §2, §3, §4

Compound	total Aurora-A protein levels [1]	T-loop phosphorylation of PLK1 (pT210) [2]	phosphorylation of TCTP (pS46) [3]
5′-CGGUAGUGAUAAAAGCUCAtt-3′ [siTPX2]	decreased total Aurora-A protein levels	–	–
COc1cc(Nc2ncc3c(n2)-c2ccc(Cl)cc2C(c2c(F)cccc2OC)=NC3)ccc1C(=O)O [Alisertib]	–	decreased	decreased
